Eleven molecules from patent publication US7790752B2, “Indol-3-yl-carbonyl-azaspiro derivatives” (Hoffmann-La Roche Inc., priority 2005, dated 2010) can be followed below.

The experiment addresses T1, human V1a receptor (Homo sapiens, UniProt P37288).
T1 construct: expressed in transfected cells; host or cells: HEK293 cells, transiently transfected; membrane preparation
The experiment in a line: human V1a receptor binding (3H-Vasopressin SPA, HEK293 membranes). The note with it: displacement of 3H-Vasopressin; membranes of HEK293 cells transiently transfected with human V1a receptor; Ki from IC50 by Cheng-Prussoff equation. As for the experimental part:
The human V1a receptor was cloned by RT-PCR from total human liver RNA. The coding sequence was subcloned in an expression vector after sequencing to confirm the identity of the amplified sequence. […] Cell membranes were prepared from HEK293 cells transiently transfected with the expression vector and grown in 20 liter fermenters with the following protocol.
50 g of cells are resuspended in 30 ml freshly prepared ice cold Lysis buffer (50 mM HEPES, 1 mM EDTA, 10 mM MgCl2 adjusted to pH=7.4+complete cocktail of protease inhibitor (Roche Diagnostics)). Homogenized with Polytron for 1 min and sonicated on ice for 2×2 minutes at 80% intensity (Vibracell sonicator). The preparation is centrifuged 20 min at 500 g at 4° C., the pellet is discarded and the supernatant centrifuged 1 hour at 43,000 g at 4° C. (19,000 rpm). The pellet is resuspended in 12.5 ml Lysis buffer+12.5 ml Sucrose 20% and homogenized using a Polytron for 1-2 min. The protein concentration is determined by the Bradford method, and aliquots are stored at −80° C. until use. For binding studies 60 mg Yttrium silicate SPA beads (Amersham) are mixed with an aliquot of membrane in binding buffer (50 mM Tris, 120 mM NaCl, 5 mM KCl, 2 mM CaCl2, 10 mM MgCl2) for 15 minutes with mixing. 50 ul of bead/membrane mixture is then added to each well of a 96 well plate, followed by 50 ul of 4 nM 3H-Vasopressin (American Radiolabeled Chemicals). For total binding measurement 100 ul of binding buffer are added to the respective wells, for non-specific binding 100 ul of […] cold vasopressin and for compound testing 100 ul of a serial dilution of each compound in 2% DMSO. The plate is incubated 1 h at room temperature, centrifuged 1 min at 1000 g and counted on a Packard Top-Count. Non-specific binding counts are subtracted from each well, and data is normalized to the maximum specific binding set at 100%. To calculate an IC 50 the curve is fitted using a non-linear regression model (XLfit), and the Ki is calculated using the Cheng-Prussoff equation.
For orientation: In a radioligand displacement assay an active substance lowers the binding of a labelled ligand.

T1 sequence (P37288 whole entry): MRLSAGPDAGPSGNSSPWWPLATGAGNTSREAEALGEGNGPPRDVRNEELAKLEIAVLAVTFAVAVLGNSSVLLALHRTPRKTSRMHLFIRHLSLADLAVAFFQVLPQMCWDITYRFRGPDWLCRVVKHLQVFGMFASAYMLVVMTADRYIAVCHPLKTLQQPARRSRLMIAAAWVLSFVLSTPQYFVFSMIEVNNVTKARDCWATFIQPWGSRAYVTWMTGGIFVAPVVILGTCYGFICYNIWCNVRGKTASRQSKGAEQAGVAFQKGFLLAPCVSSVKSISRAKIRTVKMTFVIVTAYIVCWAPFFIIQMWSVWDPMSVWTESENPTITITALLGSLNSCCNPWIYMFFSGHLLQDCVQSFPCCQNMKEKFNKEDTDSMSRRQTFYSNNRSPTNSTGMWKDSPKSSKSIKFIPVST

As to `Cc1c(C(=O)N2CCC3(CC2)C(=O)N(C)CN3c2ccccc2)c2ccccc2n1Cc1ccccc1` [Example 1, 8-[(1-Benzyl-2-methyl-1H-indol-3-yl)carbonyl]-3-methyl-1-phenyl-1,3,8-triazaspiro[4.5]decan-4-one], the Ki (in general, the dissociation constant of the complex between target and ligand, obtained from inhibition or displacement) was 368 nM. This counts as sub-micromolar. Molecule `Cc1c(C(=O)N2CCC3(CC2)C(=O)NCN3c2ccccc2)c2ccccc2n1Cc1ccccc1` [Example 2, 8-(1-Benzyl-2-methyl-1H-indole-3-carbonyl)-1-phenyl-1,3,8-triaza-spiro[4.5]decan-4-one] had a Ki of 367 nM. The Ki values of the last two molecules are within 1.5-fold of each other.

Turning to `CN(C)CCn1cc(C(=O)N2CCC3(CC2)C(=O)N(C)CN3c2ccccc2)c2ccc(Cl)cc21` [Example 7, 8-({6-Chloro-1-[2-(dimethylamino)ethyl]-1H-indol-3-yl}carbonyl)-3-methyl-1-phenyl-1,3,8-triazaspiro[4.5]decan-4-one], the Ki was determined as 156 nM.

The molecule `CNC(=O)Cn1cc(C(=O)N2CCC3(CC2)C(=O)N(C)CN3c2ccccc2)c2ccc(Cl)cc21` [Example 8, 2-{6-Chloro-3-[(3-methyl-4-oxo-1-phenyl-1,3,8-triazaspiro[4.5]dec-8-yl)carbonyl]-1H-indol-1-yl}-N-methylacetamide] displayed a Ki of 37 nM. In the case of `CN1CN(c2ccccc2)C2(CCN(C(=O)c3cn(Cc4cc(F)cc(F)c4)c4cc(Cl)ccc34)CC2)C1=O` [Example 9, 8-{[6-Chloro-1-(3,5-difluorobenzyl)-1H-indol-3-yl]carbonyl}-3-methyl-1-phenyl-1,3,8-triazaspiro[4.5]decan-4-one], the affinity corresponds to a Ki of 21 nM.

`CN(C)C(=O)Cn1cc(C(=O)N2CCC3(CC2)C(=O)N(C)CN3c2ccccc2)c2ccc(Cl)cc21` [Example 10, 2-{6-Chloro-3-[(3-methyl-4-oxo-1-phenyl-1,3,8-triazaspiro[4.5]dec-8-yl)carbonyl]-1H-indol-1-yl}-N,N-dimethylacetamide] came in with a Ki of 14 nM. With `CN1CN(c2ccccc2)C2(CCN(C(=O)c3cn(Cc4ccccc4)c4cc(Cl)ccc34)CC2)C1=O` [Example 11, 8-[(1-Benzyl-6-chloro-1H-indol-3-yl)carbonyl]-3-methyl-1-phenyl-1,3,8-triazaspiro[4.5]decan-4-one] the figure was 45 nM. In the case of `CN1CN(c2ccccc2)C2(CCN(C(=O)c3cn(Cc4cccc(Cl)c4F)c4cc(Cl)ccc34)CC2)C1=O` [Example 13, 8-{[6-Chloro-1-(3-chloro-2-fluorobenzyl)-1H-indol-3-yl]carbonyl}-3-methyl-1-phenyl-1,3,8-triazaspiro[4.5]decan-4-one] it was 73 nM; in that of `CN(C)CCNC(=O)Cn1cc(C(=O)N2CCC3(CC2)C(=O)N(C)CN3c2ccccc2)c2ccc(Cl)cc21` [Example 14, 2-{6-Chloro-3-[(3-methyl-4-oxo-1-phenyl-1,3,8-triazaspiro[4.5]dec-8-yl)carbonyl]-1H-indol-1-yl}-N-[2-(dimethylamino)ethyl]acetamide], 184 nM.

Molecule `Cc1c(C(=O)N2CCC3(CC2)OCCO3)c2ccccc2n1Cc1ccccc1` [Example 15, (1-Benzyl-2-methyl-1H-indol-3-yl)-(1,4-dioxa-8-aza-spiro[4.5]dec-8-yl)-methanone] displayed a Ki of 424 nM. In the case of `O=C(c1c[nH]c2cc(Cl)ccc12)N1CCC2(CC1)OCCO2` [Example 16, 8-[(6-Chloro-1H-indol-3-yl)carbonyl]-1,4-dioxa-8-azaspiro[4.5]decane] it was 284 nM.
